Several values for one entry are separate records, joined by “and”; a condition that tells them apart may be missing. Equal entries are not always repeated. Where two headings read alike, the source gives them in different places.
How the values were obtained:
[1] = biological target: Human Androgen Receptor (Homo sapiens (Human), UniProt P10275); test: Androgen receptor assay: [3H]R1881 displacement, cytosol of HEK-293 cells transfected with hAR (hydroxylapatite assay); assay type: binding; settings: for Human Androgen Receptor Binding RBA (%) R1881 = 100: relative binding affinity; for times more binding to the human androgen receptor than the corresponding hydantoin: thiohydantoin versus hydantoin (EM-9052 vs EM-9150; EM-7105 vs EM-7333); for affinity for the androgen receptor (in words): SAR discussion
Sequence of Human Androgen Receptor (P10275 whole entry): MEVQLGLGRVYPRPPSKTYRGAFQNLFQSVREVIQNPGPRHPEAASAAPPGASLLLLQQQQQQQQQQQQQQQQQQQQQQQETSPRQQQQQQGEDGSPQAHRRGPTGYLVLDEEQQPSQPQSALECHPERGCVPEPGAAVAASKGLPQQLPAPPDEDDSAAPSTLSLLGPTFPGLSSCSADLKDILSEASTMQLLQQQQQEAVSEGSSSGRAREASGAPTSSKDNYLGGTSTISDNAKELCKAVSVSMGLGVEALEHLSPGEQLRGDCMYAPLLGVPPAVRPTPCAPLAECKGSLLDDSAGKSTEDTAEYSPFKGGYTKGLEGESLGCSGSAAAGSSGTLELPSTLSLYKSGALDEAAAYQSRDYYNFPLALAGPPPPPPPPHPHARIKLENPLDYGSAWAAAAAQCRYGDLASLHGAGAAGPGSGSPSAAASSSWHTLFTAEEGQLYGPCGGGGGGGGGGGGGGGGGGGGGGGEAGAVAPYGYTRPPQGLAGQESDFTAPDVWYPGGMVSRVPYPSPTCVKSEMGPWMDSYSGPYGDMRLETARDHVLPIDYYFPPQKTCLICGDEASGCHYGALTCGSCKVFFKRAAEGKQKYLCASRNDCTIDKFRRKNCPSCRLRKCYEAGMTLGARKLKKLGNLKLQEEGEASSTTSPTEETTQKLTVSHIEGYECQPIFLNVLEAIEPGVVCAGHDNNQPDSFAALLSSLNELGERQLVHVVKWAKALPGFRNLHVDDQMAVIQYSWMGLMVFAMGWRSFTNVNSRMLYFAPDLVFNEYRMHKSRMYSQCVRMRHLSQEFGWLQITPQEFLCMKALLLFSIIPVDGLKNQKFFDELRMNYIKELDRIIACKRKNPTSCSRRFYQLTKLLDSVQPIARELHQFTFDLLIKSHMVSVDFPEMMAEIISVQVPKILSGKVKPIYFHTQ

[2] = tested on: Shionogi mouse mammary carcinoma cells; test: In vitro androgenic/antiandrogenic activity: proliferation of Shionogi cells with or without DHT; assay type: cell-based
[3] = biological target: Rat Androgen Receptor (Rattus norvegicus (Rat), UniProt P15207); test: Androgen receptor assay: [3H]R1881 displacement, rat prostate cytosol; assay type: binding; settings: relative binding affinity, R1881 = 100; prostate cytosol
Sequence of Rat Androgen Receptor (P15207 whole entry, looked up): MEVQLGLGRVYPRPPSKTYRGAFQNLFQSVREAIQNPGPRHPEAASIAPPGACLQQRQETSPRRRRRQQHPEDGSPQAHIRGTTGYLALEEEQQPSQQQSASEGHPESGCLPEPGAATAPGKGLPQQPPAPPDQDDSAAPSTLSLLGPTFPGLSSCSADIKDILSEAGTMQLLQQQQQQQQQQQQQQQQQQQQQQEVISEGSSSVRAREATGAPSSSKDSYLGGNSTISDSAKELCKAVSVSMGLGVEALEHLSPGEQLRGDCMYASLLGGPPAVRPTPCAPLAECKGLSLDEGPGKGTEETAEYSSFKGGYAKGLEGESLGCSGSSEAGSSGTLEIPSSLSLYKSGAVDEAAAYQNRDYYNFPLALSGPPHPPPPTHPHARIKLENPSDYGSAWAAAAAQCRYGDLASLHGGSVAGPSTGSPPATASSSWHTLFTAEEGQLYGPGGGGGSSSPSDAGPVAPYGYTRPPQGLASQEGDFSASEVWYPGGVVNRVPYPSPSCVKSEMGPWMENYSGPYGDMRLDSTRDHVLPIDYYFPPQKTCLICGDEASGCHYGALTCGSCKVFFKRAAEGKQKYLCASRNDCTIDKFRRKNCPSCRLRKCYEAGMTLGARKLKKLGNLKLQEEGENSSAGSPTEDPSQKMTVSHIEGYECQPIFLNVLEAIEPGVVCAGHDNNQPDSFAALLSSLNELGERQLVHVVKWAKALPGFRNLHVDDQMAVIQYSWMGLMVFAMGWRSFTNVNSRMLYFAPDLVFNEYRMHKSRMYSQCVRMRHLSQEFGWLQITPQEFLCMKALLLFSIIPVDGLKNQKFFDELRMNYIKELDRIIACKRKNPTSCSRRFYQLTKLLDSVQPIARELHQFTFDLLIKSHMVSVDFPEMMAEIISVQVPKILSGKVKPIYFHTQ
Description: On the morning of the binding assay, ventral prostates collected from 24 h-gonadectomized rats were homogenized in buffer A (1 g of tissue in 5 mL) and the homogenate was centrifuged as described above.
Androgen binding is measured using the hydroxylapatite (HAP) assay. In brief, the radioactive steroid [^3H]R1881 solubilized in ethanol is diluted with buffer B (10 mM Tris-HCl, 1.5 mM EDTA disodium salt, 10 mM α-monothioglycerol, pH 7.4). Aliquots of the cell or prostate cytosol preparation (0.1 ml) are then incubated with 5 nM [^3H]R1881 (0.1 ml, ˜100 000 cpm) in the presence or absence of the indicated concentrations of unlabeled compounds (0.1 ml, prepared in buffer B containing 30% ethanol) for 16-18 h at 0-4° C. Triamcinolone acetonide (TAC; 100 nM) is added to mask progesterone receptors. Unbound steroids are separated by incubation for 40 min at 0-4° C. with 0.3 ml HAP prepared in buffer P (50 mM Tris-HCl, 10 mM KH2PO4, pH 7.4). After incubation with HAP and 10 min of centrifugation at 1000×g, the pellet is washed 3 times with 1 ml of buffer P. Thereafter, the radioactivity is extracted from the pellet by incubation at room temperature for 60 min with 1 ml of ethanol. After centrifugation, the supernatant is decanted into a scintillation vial and the pellet is extracted again with ethanol. After the addition of scintillation liquid, the radioactivity is measured in a liquid scintillation counter.
Relative binding affinity (RBA) was calculated by the following formula: RBA (%) [IC50(R1881)/IC50 (compound)]×100 B—In Vitro Assay of Androgenic/Antiandrogenic Activity

[4] = tested on: PSA levels in human prostatic carcinoma LNCaP cells; test: Prostate specific antigen (PSA) in LNCaP cells with or without R1881; assay type: cell-based; settings: for LNCaP Cells Antiandrogenic activity (PSA) % inhibition at 10^−7M: R1881-stimulated, 10^−7M of compound
Description: LNCaP cells were cultured as previously described (Qi et al. 2001). In brief, the LNCaP cells were cultured for 6 days in 1.0 ml RPMI 1640 supplemented with hormone-depleted 0.25% FCS before each experiment. At the start of the experiment, half of the medium (0.5 ml) was replaced with 0.5 ml of identical medium containing the appropriate concentrations of tested compounds, in the presence or absence of 1.0 nM of R1881. After 72 h of incubation of LNCaP cells with compounds, 0.5 ml of culture medium was removed for PSA determination. PSA levels were measured using the PSA [^125I] IRMA KIT (REF: RK-10CT) from Izotop (Institute of Isotopes Ltd, Budapest, Hungary).

[5] = tested on: castrated (CX) immature male rats; test: Systemic androgenic (agonistic) activity in orchidectomized (CX) immature male rats; assay type: in vivo, rat; settings: 0.1 mg/rat/po, 7 days; for CX Agonistic activity % Stimulation Bulbo: bulbocavernosus muscles weight; for CX Agonistic activity % Stimulation SV: seminal vesicles weight; for CX Agonistic activity % Stimulation Prostate: ventral prostate weight
[6] = tested on: Androgen Receptor; test: Overall classification (antiandrogen / SARM) in the models studied
[7] = DHT (0.3 nM)-stimulated cell number, read-out: Shionogi Antiandrogenic Activity IC50
[8] = Mus musculus, read-out: Shionogi Antiandrogenic Activity IC50, DHT (0.3 nM)-stimulated cell number

Compound | Human Androgen Receptor Binding RBA (%) R1881 = 100 ([1]; transfected cells) | times more binding to the human androgen receptor than the corresponding hydantoin [1] | IC50 [2, 7] [µM] | Rat Androgen Receptor Binding RBA (%) R1881 = 100 [3] [%] | LNCaP Cells Antiandrogenic activity (PSA) % inhibition at 10^−7M [4] [%] | CX Agonistic activity % Stimulation Bulbo [5] | CX Agonistic activity % Stimulation SV [5] | CX Agonistic activity % Stimulation Prostate [5] | classification as antiandrogen or SARM (in words) [6] | affinity for the androgen receptor (in words) [1] | Human Androgen Receptor Binding RBA (%) R1881 = 100 ([1]; […]) | IC50 [2, 8] [µM] | inhibition at 0.1 µM ([4]; Homo sapiens, LNCaP, read-out: LNCaP Cells Antiandrogenic activity (PSA) % inhibition at 10^−7M, R1881-stimulated, 10^−7M of compound) [%]
CC(C)NCc1ccc(OCCCN2C(=S)N(c3ccc(C#N)c(C(F)(F)F)c3)C(=O)C2(C)C)cc1 [EM-7105, reference compound] | 41% and 41 ± 30% | around 140 times | 0.0094 | 3.9 | 26 |  |  |  |  |  |  |  | 
CCNCc1ccc(OCCCN2C(=S)N(c3ccc(C#N)c(C(F)(F)F)c3)C(=O)C2(C)C)cc1 [EM-7148, reference compound] | 11% and 11 ± 1% |  | 0.0092 |  | 33 |  |  |  |  |  |  |  | 
Cc1c(N2C(=O)C(C)(C)N(CCCOc3ccc(-c4ccncc4)cc3)C2=S)ccc(C#N)c1C(F)(F)F [EM-8691] |  |  |  |  |  | 163% | 24% | 39% | potent SARM | high affinity | 525 ± 362 (n = 3) % | > 0.1 | 
Cc1c(N2C(=O)C(C)(C)N(CCCOc3ccc(-c4ccncc4)c(C(F)(F)F)c3)C2=S)ccc(C#N)c1C(F)(F)F [EM-8821] | 28.3% |  |  |  |  | 74% | 22% | 22% | weaker SARM | decreased affinity |  | 0.0115 | 
CC1(C)C(=O)N(c2ccc(C#N)c(Cl)c2)C(=S)N1CCCOc1ccc(-c2ccncc2)cc1Cl [EM-9052] |  | 27 times |  |  |  |  |  |  |  |  |  | 0.061 | 26
CC1(C)C(=O)N(c2ccc(C#N)c(Cl)c2)C(=O)N1CCCOc1ccc(-c2ccncc2)cc1 [EM-9116] |  |  |  |  |  |  |  |  | better antiandrogens | higher affinity | 9.2 ± 1.9 (n = 5) % | 0.017 ± 0.005 | 
Cc1c(N2C(=O)N(CCCOc3ccc(-c4cc[n+]([O-])cc4)cc3Cl)C(C)(C)C2=O)ccc(C#N)c1Cl [EM-9252] |  |  |  |  |  | 105 ± 9 (n = 2) % | 29 ± 5 (n = 2) % | 46 ± 5 (n = 2) % | selective androgen receptor modulators |  | 96.3% | > 0.1 | 
Cc1c(N2C(=O)NC(C)(C)C2=O)ccc(C#N)c1Cl [EM-9289] |  |  |  |  |  | 138 ± 15 (n = 2) % | 38 ± 5 (n = 2) % | 50 ± 6 (n = 2) % | selective androgen receptor modulators |  | 1.0% | ~1 | 
Cc1c(N2C(=O)N(CCCOc3ccc(-c4ccncc4F)cc3)C(C)(C)C2=O)ccc(C#N)c1Cl [EM-9311] |  |  |  |  |  | 119 ± 8 (n = 2) % | 24 ± 3 (n = 2) % | 39 ± 1 (n = 2) % |  |  | 89.0% | > 0.1 | 
Cc1c(N2C(=O)N(CCCOc3ccc(-c4cc[n+]([O-])cc4Cl)cc3)C(C)(C)C2=O)ccc(C#N)c1Cl [EM-9313] |  |  |  |  |  | 88 ± 2 (n = 2) % | 14 ± 9 (n = 2) % | 36 ± 2 (n = 2) % |  |  | 34.1% | > 0.1 | 
Cc1c(N2C(=O)N(CCCOc3ccc(-c4cc[n+]([O-])cc4F)cc3)C(C)(C)C2=O)ccc(C#N)c1Cl [EM-9318] | 46.1% |  |  |  |  | 92 ± 27 (n = 2) % | 14 ± 9 (n = 2) % | 42 ± 3 (n = 2) % |  |  |  | 0.1 | 
Cc1c(N2C(=O)N(CCCOc3ccc(-c4cc[n+]([O-])cc4)cc3C(F)(F)F)C(C)(C)C2=O)ccc(C#N)c1Cl [EM-9319] |  |  |  |  |  | 110 ± 10 (n = 2) % | 17 ± 10 (n = 2) % | 39 ± 2 (n = 2) % |  |  | 9.6% | 0.0978 | 
Cc1c(N2C(=O)N(CCCOc3ccc(-c4ccncc4)c(C(F)(F)F)c3)C(C)(C)C2=O)ccc(C#N)c1Cl [EM-9333] |  |  |  |  |  | 93 ± 23 (n = 2) % | 19 ± 5 (n = 2) % | 38 ± 2 (n = 2) % |  |  | 64.1% | 0.073 | 
Cc1c(N2C(=O)N(CCCOc3ccc(-c4cc[n+]([O-])cc4)c(C(F)(F)F)c3)C(C)(C)C2=O)ccc(C#N)c1Cl [EM-9334] |  |  |  |  |  | 86% | 17% | 30% |  |  | 17.8% | 0.0289 | 

— US9682960B2 (priority 2013, dated 2017)
